Laboratory results published in patent publication US20260138961A1, “MODULATORS OF MITOCHONDRIAL DNA REPLICATION” (Pretzel Therapeutics, Inc., priority 2022, published 2026).

What follows are molecules tested against T1, POLγA:A467T (Homo sapiens, UniProt P54098, A467T) (assay: DNA polymerization assay, POLγA:A467T mutant). Conditions: stimulation of polymerase activity, primed M13mp18 ssDNA, 37° C. 2 hours; read-out: A467T AC50.
T1 sequence (P54098 1-1239 A467T): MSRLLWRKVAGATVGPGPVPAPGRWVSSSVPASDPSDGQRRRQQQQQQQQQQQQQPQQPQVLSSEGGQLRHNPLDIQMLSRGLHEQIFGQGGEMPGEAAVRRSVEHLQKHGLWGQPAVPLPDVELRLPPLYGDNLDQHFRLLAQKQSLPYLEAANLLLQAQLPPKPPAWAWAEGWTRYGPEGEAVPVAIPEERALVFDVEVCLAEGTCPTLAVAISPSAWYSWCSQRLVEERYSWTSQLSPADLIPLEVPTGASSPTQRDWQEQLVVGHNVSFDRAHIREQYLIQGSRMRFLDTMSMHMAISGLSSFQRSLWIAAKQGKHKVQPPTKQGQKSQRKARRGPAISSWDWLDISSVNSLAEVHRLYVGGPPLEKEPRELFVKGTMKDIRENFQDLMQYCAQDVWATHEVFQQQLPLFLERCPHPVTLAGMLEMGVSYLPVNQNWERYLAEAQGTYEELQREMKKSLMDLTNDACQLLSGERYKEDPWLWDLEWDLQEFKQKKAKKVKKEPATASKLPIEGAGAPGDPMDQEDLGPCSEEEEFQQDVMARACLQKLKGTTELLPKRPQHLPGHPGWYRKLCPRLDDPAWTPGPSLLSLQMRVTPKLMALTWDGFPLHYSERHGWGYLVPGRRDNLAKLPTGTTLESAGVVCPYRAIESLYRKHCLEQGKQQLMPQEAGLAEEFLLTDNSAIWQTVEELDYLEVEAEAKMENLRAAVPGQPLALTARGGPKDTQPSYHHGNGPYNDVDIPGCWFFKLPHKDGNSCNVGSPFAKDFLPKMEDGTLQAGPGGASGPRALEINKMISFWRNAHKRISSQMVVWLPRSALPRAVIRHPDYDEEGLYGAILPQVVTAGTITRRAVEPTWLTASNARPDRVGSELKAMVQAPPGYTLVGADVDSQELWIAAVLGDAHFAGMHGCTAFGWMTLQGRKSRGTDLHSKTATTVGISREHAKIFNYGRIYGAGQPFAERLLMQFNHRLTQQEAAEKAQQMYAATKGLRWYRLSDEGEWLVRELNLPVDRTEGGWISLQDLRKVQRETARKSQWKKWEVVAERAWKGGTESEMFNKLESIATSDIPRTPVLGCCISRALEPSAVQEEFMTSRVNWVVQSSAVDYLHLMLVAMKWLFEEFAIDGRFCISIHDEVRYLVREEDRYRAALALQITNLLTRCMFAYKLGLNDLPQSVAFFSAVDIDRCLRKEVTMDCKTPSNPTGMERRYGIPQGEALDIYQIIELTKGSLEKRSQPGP
T1 sequence (Q9UHN1 1-485 partner): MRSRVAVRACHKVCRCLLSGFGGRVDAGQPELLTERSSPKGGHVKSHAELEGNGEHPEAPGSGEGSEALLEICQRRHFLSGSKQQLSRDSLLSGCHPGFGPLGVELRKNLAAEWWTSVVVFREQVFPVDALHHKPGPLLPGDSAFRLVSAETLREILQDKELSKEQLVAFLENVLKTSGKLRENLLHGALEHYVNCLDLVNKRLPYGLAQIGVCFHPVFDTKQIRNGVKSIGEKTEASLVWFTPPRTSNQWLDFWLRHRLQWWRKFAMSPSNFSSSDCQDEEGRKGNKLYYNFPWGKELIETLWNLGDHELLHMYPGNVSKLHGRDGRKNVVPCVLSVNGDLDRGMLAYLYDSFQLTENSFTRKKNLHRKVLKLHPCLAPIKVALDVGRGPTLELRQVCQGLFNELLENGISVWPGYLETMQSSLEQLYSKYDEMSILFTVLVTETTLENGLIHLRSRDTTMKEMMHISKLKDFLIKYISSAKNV
Assay type: biochemical
Protocol: DNA Polymerization Assay to Monitor Effects on Human Wildtype POLγ and Four Disease-Causing Mutant Variants of Human POLγ.
The ability of small molecules to stimulate the polymerase activity of POLγ was analyzed in a quantitative fluorescence SYBR Green I assay with fluorescence intensity (FI) readout.
In the presence of dNTPs, wild type human POLγ and mutant derivatives thereof were incubated with single-stranded, circular M13mp18 ssDNA hybridized to a short DNA oligonucleotide that functions as a primer for initiation of DNA synthesis. POLγ and mutant derivatives thereof will extend the primer and use the M13mp18 molecule as a template to synthesize long stretches of double-stranded DNA. SYBR Green I, which is a double-stranded DNA-binding dye, was used to quantify formation of double-stranded DNA in the reaction. When bound to double-stranded DNA, SYBR Green I fluorescence increases by up to 100-fold.
The assay was performed in the 384-well plate format. Upon addition of compounds, changes in double-stranded DNA synthesis activity can be monitored by following effects on fluorescent intensity.
The reactions also contained the accessory POLγB subunit, and the human mitochondrial single-stranded DNA binding protein (mtSSB).
The DNA template mixture used in the assay contained 0.5 nM primed M13 mp18 ssDNA, 400 nM mtSSB, 0.1 mM Tris-HCl (pH 8.0), 0.1 mM dNTP, 10 mM MgCl2, 0.1 mg/mL BSA, 1 mM TCEP solution, and 0.02% Triton X-100. The DNA template mixture for the wild type protein contained either 100 μM dNTP, 1 μM dNTP, or 0.1 μM dNTP, designated in Table 2 as 100 μM, 1 μM, and 0.1 μM, respectfully.
Microplates with compounds (0.1 μL in each well) to be tested in the assay were prepared from 10 mM compound stocks in 100% DMSO, and equal amounts of DMSO without any compound were added to positive and negative control wells.
The protein mixture was dispensed (5 μL into each well) into compound plates and incubated at 37° C. for 15 minutes. After incubation, 5 μL of the DNA template mixture was dispensed into each well. The plates were then incubated at 37° C. for 2 hours.
During incubation, a combined stop buffer and detection reagent solution was prepared. The buffer contained 25 mM EDTA (pH 8.0), 0.02% Triton X-100, and SYBR Green I [Invitrogen] diluted 10,000× (for fluorescent readout). EDTA will stop the enzymatic reaction by chelating magnesium ions.

Row | Compound | AC50
1 | Cc1cc(S(=O)(=O)Nc2cccc(C(=O)N(C)C(C)CO)c2)c(C)cc1Cl (single isomer, unassigned) [Example 14, 3-((4-chloro-2,5-dimethylphenyl)sulfonamido)-N-(1-hydroxypropan-2-yl)-N-methylbenzamide] | 28 µM
2 | Cc1ccc(C)c(S(=O)(=O)Nc2cccc(C(=O)N3CCCCC3C#N)c2)c1 (stereo not drawn) [Example 2, N-(3-(2-cyanopiperidine-1-carbonyl)phenyl)-2,5-dimethylbenzenesulfonamide] | 60 µM
3 | Cc1ccc(C)c(S(=O)(=O)Nc2cccc(C(=O)N3CCCCC3)c2)c1 [Example 3, 2,5-dimethyl-N-(3-(piperidine-1-carbonyl)phenyl)benzene sulfonamide] | 48 µM
4 | Cc1ccc(C)c(S(=O)(=O)Nc2cccc(C(=O)NCC3CC3)c2)c1 [Example 4, N-(cyclopropylmethyl)-3-((2,5-dimethylphenyl)sulfonamido)benzamide] | 52 µM
5 | Cc1ccc(C)c(S(=O)(=O)Nc2cccc(C(=O)N3CCCC[C@H]3C)c2)c1 [Example 5, (R)-2,5-dimethyl-N-(3-(2-methylpiperidine-1-carbonyl)phenyl)benzenesulfonamide] | 33 µM
6 | Cc1ccc(C)c(S(=O)(=O)Nc2cccc(C(=O)N3CCCC[C@@H]3C)c2)c1 [Example 6, (S)-2,5-dimethyl-N-(3-(2-methylpiperidine-1-carbonyl)phenyl)benzenesulfonamide] | 95 µM
7 | Cc1ccc(C)c(S(=O)(=O)Nc2cccc(C(=O)N3CCOCC3C#N)c2)c1 (stereo not drawn) [Example 7, N-(3-(3-cyanomorpholine-4-carbonyl)phenyl)-2,5-dimethylbenzenesulfonamide] | 37 µM
8 | Cc1ccc(C)c(S(=O)(=O)Nc2cccc(C(=O)N[C@@H](C)C3CC3)c2)c1 [Example 8, (S)-N-(1-cyclopropylethyl)-3-((2,5-dimethylphenyl)sulfonamido)benzamide] | 39 µM
9 | Cc1cc(S(=O)(=O)Nc2cccc(C(=O)N3CCCC[C@H]3C)c2)c(C)cc1Cl [Example 9, (R)-4-chloro-2,5-dimethyl-N-(3-(2-methylpiperidine-1-carbonyl)phenyl)benzenesulfonamide] | 18 µM
10 | Cc1cc(S(=O)(=O)Nc2cccc(C(=O)N3CCC[C@H]3C)c2)c(C)cc1Cl [Example 10, (R)-4-chloro-2,5-dimethyl-N-(3-(2-methylpyrrolidine-1-carbonyl)phenyl)benzenesulfonamide] | 12 µM
11 | Cc1cc(S(=O)(=O)Nc2cccc(C(=O)NCc3ccccc3)c2)c(C)cc1Cl [Example 11, N-benzyl-3-((4-chloro-2,5-dimethylphenyl)sulfonamido)benzamide] | 49 µM
12 | Cc1cc(S(=O)(=O)Nc2cccc(C(=O)N(C)C)c2)c(C)cc1Cl [Example 12, 3-((4-chloro-2,5-dimethylphenyl)sulfonamido)-N,N-dimethylbenzamide] | 45 µM
13 | Cc1cc(S(=O)(=O)Nc2cc(F)cc(C(=O)N3CCC[C@H]3C)c2)c(C)cc1Cl [Example 13, (R)-4-chloro-N-(3-fluoro-5-(2-methylpyrrolidine-1-carbonyl)phenyl)-2,5-dimethylbenzenesulfonamide] | 33 µM
14 | Cc1cc(S(=O)(=O)Nc2cccc(-c3nccs3)c2)c(C)cc1Cl [Example 16, 4-chloro-2,5-dimethyl-N-(3-(thiazol-2-yl)phenyl)benzenesulfonamide] | 5 µM
15 | Cc1cc(S(=O)(=O)Nc2cccc(-c3ncco3)c2)c(C)cc1Cl [Example 17, 4-chloro-2,5-dimethyl-N-(3-(oxazol-2-yl)phenyl)benzenesulfonamide] | 6 µM
16 | Cc1cc(S(=O)(=O)Nc2cccc(-c3ccn(C)n3)c2)c(C)cc1Cl [Example 18, 4-chloro-2,5-dimethyl-N-(3-(1-methyl-1H-pyrazol-3-yl)phenyl)benzenesulfonamide] | 17 µM
17 | Cc1cc(S(=O)(=O)Nc2cccc(-c3nccn3C)c2)c(C)cc1Cl [Example 19, 4-chloro-2,5-dimethyl-N-(3-(1-methyl-1H-imidazol-2-yl)phenyl)benzenesulfonamide] | 11 µM
18 | Cc1cc(S(=O)(=O)Nc2cccc(-c3ncc(C(N)=O)s3)c2)c(C)cc1Cl [Example 92, 2-(3-((4-chloro-2,5-dimethylphenyl)sulfonamido)phenyl) thiazole-5-carboxamide] | > 100 µM
19 | CNC(=O)c1cnc(-c2cccc(NS(=O)(=O)c3cc(C)c(Cl)cc3C)c2)s1 [Example 93, 2-(3-((4-chloro-2,5-dimethylphenyl)sulfonamido)phenyl)-N-methylthiazole-5-carboxamide] | > 100 µM
20 | Cc1cc(S(=O)(=O)Nc2cccc(-c3ncc(C(=O)N(C)C)s3)c2)c(C)cc1Cl [Example 94, 2-(3-((4-chloro-2,5-dimethylphenyl)sulfonamido)phenyl)-N,N-dimethylthiazole-5-carboxamide] | > 100 µM
21 | Cc1cc(S(=O)(=O)N[C@H]2CCCN(C(=O)[C@H]3CCCN3C)C2)c(C)cc1Cl [Example 95, 4-chloro-2,5-dimethyl-N-((S)-1-(methyl-D-prolyl)piperidin-3-yl)benzenesulfonamide] | > 100 µM
22 | Cc1cc(S(=O)(=O)Nc2cccc(-c3ncc(C#N)s3)c2)c(C)cc1Cl [Example 96, 4-chloro-N-(3-(5-cyanothiazol-2-yl)phenyl)-2,5-dimethylbenzenesulfonamide] | 24 µM
23 | Cc1cc(S(=O)(=O)Nc2cccc(-c3ncc(-c4nnn[nH]4)s3)c2)c(C)cc1Cl [Example 97, N-(3-(5-(1H-tetrazol-5-yl)thiazol-2-yl)phenyl)-4-chloro-2,5-dimethylbenzenesulfonamide] | > 100 µM
24 | Cc1cnc(-c2ccc(C)c(NS(=O)(=O)c3cc(C)c(Cl)cc3C)c2)s1 [Example 98, 4-chloro-2,5-dimethyl-N-(2-methyl-5-(5-methylthiazol-2-yl)phenyl)benzenesulfonamide] | > 100 µM
